Test results: ChEMBL document CHEMBL5244230, “Artemisinin-derived hybrids and their anticancer activity” (Eur J Med Chem, 2020)

What was measured:
Type in all cases: functional, cell-based
[1] = system: NCI-H460; test: Antiproliferative activity against human NCI-H460 cells assessed as reduction in cell viability measured for 72 hrs by MTT assay; conditions: NCI-H460, 72 h
[2] = system: HT-29; test: Antiproliferative activity against human HT-29 cells assessed as reduction in cell viability measured for 72 hrs by MTT assay; conditions: HT-29, 72 h
[3] = system: A549; test: Antiproliferative activity against human A549 cells assessed as reduction in cell viability measured for 72 hrs by MTT assay; conditions: A549, 72 h
[4] = system: MDA-MB-231; test: Antiproliferative activity against human MDA-MB-231 cells assessed as reduction in cell viability measured for 72 hrs by MTT assay; conditions: MDA-MB-231, 72 h
[5] = system: HeLa; test: Antiproliferative activity against human HeLa cells assessed as reduction in cell viability measured for 72 hrs by MTT assay

Structure (SMILES)	IC50 [1] [nM]	IC50 [2] [nM]	IC50 [3] [nM]	IC50 [4] [nM]	IC50 [5] [nM]
C[C@H]1[C@@H](NC(=O)COCc2ccc(C(=O)/C=C/c3cccc(Cl)c3Cl)cc2)O[C@@H]2O[C@@]3(C)CC[C@H]4[C@H](C)CC[C@@H]1[C@@]24OO3	90	90	90	90	90
C[C@H]1[C@@H](NC(=O)COCc2ccc(C(=O)/C=C/c3ccccc3F)cc2)O[C@@H]2O[C@@]3(C)CC[C@H]4[C@H](C)CC[C@@H]1[C@@]24OO3	90	90	90	90	90
C[C@H]1[C@@H](NC(=O)COCc2ccc(C(=O)/C=C/c3ccc(F)c(F)c3)cc2)O[C@@H]2O[C@@]3(C)CC[C@H]4[C@H](C)CC[C@@H]1[C@@]24OO3	90	90	90	90	90
C[C@H]1[C@H](NC(=O)COCc2ccc(C(=O)/C=C/c3ccc(Cl)cc3F)cc2)O[C@@H]2O[C@@]3(C)CC[C@H]4[C@H](C)CC[C@@H]1[C@@]24OO3	100	100	100	100	100
COc1cccc(/C=C/C(=O)c2ccc(COCC(=O)N[C@@H]3O[C@@H]4O[C@@]5(C)CC[C@H]6[C@H](C)CC[C@@H]([C@H]3C)[C@@]46OO5)cc2)c1	100	100	100	100	100
C[C@H]1[C@@H](NC(=O)COCc2ccc(C(=O)/C=C/c3ccc(Cl)cc3F)cc2)O[C@@H]2O[C@@]3(C)CC[C@H]4[C@H](C)CC[C@@H]1[C@@]24OO3	90	90	90	90	90
C[C@H]1[C@@H](NC(=O)COCc2ccc(/C=C/C(=O)c3ccc(Cl)cc3)cc2)O[C@@H]2O[C@@]3(C)CC[C@H]4[C@H](C)CC[C@@H]1[C@@]24OO3	1700	1700	1700	1700	1700
COc1cccc(C(=O)/C=C/c2ccc(COCC(=O)N[C@H]3O[C@@H]4O[C@@]5(C)CC[C@H]6[C@H](C)CC[C@@H]([C@H]3C)[C@@]46OO5)cc2)c1	1700	1700	1700	1700	1700
COc1ccc(/C=C/C(=O)c2ccc(COCC(=O)N[C@@H]3O[C@@H]4O[C@@]5(C)CC[C@H]6[C@H](C)CC[C@@H]([C@H]3C)[C@@]46OO5)cc2)c(OC)c1OC	100	100	100	100	100
C[C@H]1[C@@H](NC(=O)COCc2ccc(C(=O)/C=C/c3c(Cl)cccc3Cl)cc2)O[C@@H]2O[C@@]3(C)CC[C@H]4[C@H](C)CC[C@@H]1[C@@]24OO3	90	90	90	90	90
C[C@H]1[C@@H](NC(=O)COCc2ccc(/C=C/C(=O)c3ccc(C(F)(F)F)cc3)cc2)O[C@@H]2O[C@@]3(C)CC[C@H]4[C@H](C)CC[C@@H]1[C@@]24OO3	1700	1700	1700	1700	1700
C[C@H]1[C@@H](NC(=O)COCc2ccc(C(=O)/C=C/c3ccc(F)cc3)cc2)O[C@@H]2O[C@@]3(C)CC[C@H]4[C@H](C)CC[C@@H]1[C@@]24OO3	90	90	90	90	90
C[C@H]1[C@@H](NC(=O)COCc2ccc(C(=O)/C=C/c3ccc(S(C)(=O)=O)cc3)cc2)O[C@@H]2O[C@@]3(C)CC[C@H]4[C@H](C)CC[C@@H]1[C@@]24OO3	90	90	90	90	90
